Results published in US20090291083A1, “BARB4 TARGET, ANTIBODY DESIGNATED BARB4, BARB4 RELATED ANTIBODIES, AND METHODS OF MAKING AND USING SAME” (PATRYS LIMITED, priority 2008, published 2009).
Like-named read-outs stand apart in the source and are kept apart here.

How the values were obtained:
Test in all cases: MTT cell proliferation assay (Table 2)
Type in all cases: cell-based, human
[1] = test system: COLO 205
Protocol: (§1) BARB4 was also evaluated for inhibition of proliferation of other cancer cell lines, including BxPC-3, COLO 205, H460, MDA-MB-231 and MIAPaCa-2 cells, as well as HT-29, HCT-116, BxPC-3, PANC-1, A549, PC-3 and HCT116 cells. In brief, various human cancer cell lines obtained from the American Type Culture Collection (ATCC) were established using standard in vitro culture methods and ATCC recommended media in 175 cm2 BD tissue culture treated flasks. In particular, MDAMB-231 cultures were incubated in a humidified 37° C., 100% air incubator, and BxPC-3, COLO 205, H460 and MIAPaCa-2 cultures were incubated in a humidified 37° C., 5% CO2, 95% air incubator. Cultures were sub-cultivated regularly to maintain log phase growth. All cell lines were brought up from cryopreservation using the original recommended ATCC media type and supplements. Cell line specific seeding densities were based on historical data from MIR Preclinical Services for growth over a 72 hr period.
(§2) On the day of IC50 plate seeding, the adherent cells were removed from the flasks for each cell line using trypsin EDTA, 1× (Cell Gro #25-053-CI). Trypsin was deactivated using complete media and the cells were pooled (each line done separately). The pooled cells in complete media were counted using trypan blue exclusion with a Neubauer Bright-Line® hemacytometer. The percent viability for each cell line was as follows:
(§3) Based on live cell counts, each suspension was then diluted in complete media (containing required supplements) to achieve the desired seeding density for each cell line. Once seeded, the cells were allowed to attach to the plates overnight and then treated with BA4 or cisplatin 24 hr post-seeding.
(§4) BARB4 was serially diluted 1:2 (2× final conc. in dilution reservoir=1600 μg/ml) in media to achieve a final 800 μg/ml starting concentration in the top dosage wells of the treatment plate by diluting 1:2 when transferred from the reservoir to the treatment plate. Antibody was added to columns 1 through 10 of the treatment plate. Column 11 was for cells+media only control and column 12 was for a media only blank. Cisplatin (positive control) was manufactured by Sigma (# M4394, lot 087K1349) and supplied as a fine, dark yellow powder, in an amber vial, stored at room temperature and housed in a covered box to prevent exposure to light. Cisplatin was previously dissolved in 0.9% saline to make a clear, colorless 4 mM stock solution, aliquoted and frozen at −20° C. Frozen aliquots were quickly thawed by holding the tubes in hand, placed on wet ice and diluted (2× conc. dilution reservoir) to achieve a final 1 mM starting concentration in the top dosage wells of the treatment plate (diluted 1:2 when transferred from the dilution reservoir to the treatment plate). Serial dilutions of 1:4 were made from wells 1 through 10 of the dilution reservoir prior to transfer to the treatment plate.
(§5) The BARB4 stock solution (10.5 mg/ml) was prepared by dilution in complete media according to the table below for a final starting treatment concentration of 800 μg/ml. The 4 mM stock solution of cisplatin in 0.9% saline was diluted in complete media for a final starting treatment concentration of 1 mM.
(§6) Cells were exposed to BARB4 or cisplatin for a 24 hr period. The plates were incubated overnight at 37° C. At 24 hr and 48 hr post-treatment, the MTT assay was performed as described below.
(§7) The anti-proliferative activity of BARB4 and cisplatin was evaluated using the MTT cell proliferation assay (ATCC catalog #30-1010K). The assay is based on the reduction of yellow tetrazolium MTT (3-(4,5-dimethylthiazolyl-2)-2,5-diphenyltetrazolium bromide) by metabolically active cells forming purple formazan crystals. […]

[2] = test system: H460
Protocol: as §1, §2, §3, §4, §5, §6, §7

[3] = test system: MIAPaCa-2
Protocol: as §1, §2, §3, §4, §5, §6, §7

[4] = test system: MDA-MB-231
Protocol: as §1, §2, §3, §4, §5, §6, §7

[5] = test system: BxPC-3
Protocol: as §1, §2, §3, §4, §5, §6, §7

[6] = MTT 24 hr post-treatment, read-out: IC50, Cisplatin (24 hr)
[7] = MTT 48 hr post-treatment, read-out: IC50, Cisplatin (48 hr)

N.N.[Cl][Pt][Cl] [Cisplatin, reference compound]
IC50 [1, 6]: 58.5 µM
IC50 [1, 7]: 62.9 µM
IC50 [2, 6]: 63.3 µM
IC50 [2, 7]: 6.37 µM
IC50 [3, 6]: 43.9 µM
IC50 [3, 7]: 29.8 µM
IC50 [4, 6]: 97.5 µM
IC50 [4, 7]: 233 µM
IC50 ([5]; BxPC-3, MTT 24 hr post-treatment, read-out: IC50, Cisplatin (24 hr)): 39.2 µM
IC50 ([5]; BxPC-3, MTT 48 hr post-treatment, read-out: IC50, Cisplatin (48 hr)): 9.41 µM
IC50 ([5]; BxPC-3 repeat, MTT 24 hr post-treatment, read-out: IC50, Cisplatin (24 hr)): 13.6 µM
IC50 ([5]; BxPC-3 repeat, MTT 48 hr post-treatment, read-out: IC50, Cisplatin (48 hr)): 5.65 µM
